Reference: article PMC2138508 (The Journal of Experimental Medicine, 1968)
Ends that are not written are not given here.

Tested on: renin
Assay type: biochemical, hog
Details: for Vmax per Goldblatt unit/ml: average over the renin concentrations used; for Km relative to the tetradecapeptide (times larger): ratio of Km values

Asp Arg Val Tyr Ileu His Pro Phe His Leu Leu Val Tyr Ser [asp^1-arg^2-val^3-tyr^4-ileu^5-his^6-pro^7-phe^8-his^9-leu^10-leu^11-val^12-tyr^13-ser^14]
Vmax per Goldblatt unit/ml (pH 7.5, 37.5C): 10.2 x 10-6 M/min per Goldblatt uni

HPFHLLV
Average Km (mean of the Km values at the two renin concentrations, pH 7.5, 37.5C): eo
Substrate activity with renin (renin 0.183 Goldblatt units/ml, pH 7.5, 37.5C): no hydrolysis occurred

HPFHLLVY [his^6-pro^7-phe^8-his^9-leu^10-leu^11-val^12-tyr^13]
Vmax per Goldblatt unit/ml (pH 7.5, 37.5C): 7.6 x 10-6 M/min per Goldblatt uni
Km relative to the tetradecapeptide (times larger): ~ 12 times

HPFHLLVYS [his^6-pro^7-phe^8-his^9-leu^10-leu^11-val^12-tyr^13-ser^14]
Vmax per Goldblatt unit/ml (pH 7.5, 37.5C): 11.7 x 10-6 M/min per Goldblatt uni
Km relative to the tetradecapeptide (times larger): ~ 12 times

Ileu His Pro Phe His Leu Leu Val Tyr Ser
Vmax per Goldblatt unit/ml (pH 7.5, 37.5C): 10.9 x 10-6 M/min per Goldblatt uni

NRVYVHPFHLLVYS [reference compound]
Vmax per Goldblatt unit/ml (pH 7.5, 37.5C): 9.1 x 10-6 M/min per Goldblatt uni

PFHLLVYS
Vmax per Goldblatt unit/ml (pH 7.5, 37.5C): 0.55 x 10-6 M/min per Goldblatt uni
Vm as printed in the Lineweaver-Burk plot of Fig. 4 (value of the figure where it differs from Table I): 0.6 x 10-6 M/min/Goldblatt unit

Tyr Ileu His Pro Phe His Leu Leu Val Tyr Ser
Vmax per Goldblatt unit/ml (pH 7.5, 37.5C): 9.8 x 10-6 M/min per Goldblatt uni

Val Tyr Ileu His Pro Phe His Leu Leu Val Tyr Ser
Vmax per Goldblatt unit/ml (pH 7.5, 37.5C): 8.9 x 10-6 M/min per Goldblatt uni
Vmax (renin concentration 0.0195 Goldblatt units/ml (so in the source), pH 7.5, 37.5C): 9.1e-07 M/min
